The text below walks through data of article PMC4918930, “Investigation of Elemental Mass Spectrometry in Pharmacology for Peptide Quantitation at Femtomolar Levels” (PLoS ONE, 2016).

For the assay, the target named is T1, human V1A receptor (Homo sapiens, UniProt P37288).
T1 construct: expressed in transfected cells
Description: Saturation experiment with RP-LC-ICP-MS (78Se) read-out on CHO cells stably expressing the human V1A receptor. The conditions noted are these: [Se-Se]-AVP 0.05 nM to 80 nM, non-specific with 2000-fold excess of AVP, binding buffer pH 7.4, 4 h at 4°C, 1% TFA dissociation, mean of 2 independent experiments carried out in triplicate, ±SD, read-out: dissociation constant (Kd). The method, then: (§1) Assays were performed in triplicate.
as §1

Residues, ends and D or L forms follow the SMILES beside them.

T1 sequence (P37288 whole entry): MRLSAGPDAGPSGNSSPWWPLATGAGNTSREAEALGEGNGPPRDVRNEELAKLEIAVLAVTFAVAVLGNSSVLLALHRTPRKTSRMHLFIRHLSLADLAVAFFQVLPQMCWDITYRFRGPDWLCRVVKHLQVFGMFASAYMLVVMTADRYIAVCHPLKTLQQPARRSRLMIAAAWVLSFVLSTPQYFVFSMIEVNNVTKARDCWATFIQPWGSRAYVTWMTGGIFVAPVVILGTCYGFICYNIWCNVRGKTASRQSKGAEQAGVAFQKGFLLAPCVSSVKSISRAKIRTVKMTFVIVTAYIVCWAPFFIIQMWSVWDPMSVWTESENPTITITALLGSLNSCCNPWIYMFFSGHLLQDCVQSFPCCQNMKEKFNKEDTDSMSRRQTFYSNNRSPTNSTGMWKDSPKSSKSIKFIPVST

For orientation: Kd means the concentration at which binding is half-saturated. As to `N=C(N)NCCC[C@H](NC(=O)[C@@H]1CCCN1C(=O)[C@@H]1C[Se][Se]C[C@H](N)C(=O)N[C@@H](Cc2ccc(O)cc2)C(=O)N[C@@H](Cc2ccccc2)C(=O)N[C@@H](CCC(N)=O)C(=O)N[C@@H](CC(N)=O)C(=O)N1)C(=O)NCC(N)=O` [[Se-Se]-AVP] (HELM PEPTIDE1{[N[C@@H](C[Se][*:3])C(=O)[*:2]].Y.F.Q.N.[O=C([C@H](C[Se][*:3])N[*:1])[*:2]].P.R.G.[am]}$PEPTIDE1,PEPTIDE1,1:R3-6:R3$$$V2.0), the Kd was 0.99 ± 0.14 nM.
